System: PC3 cells
Experiment: NAMPT Cell Proliferation Assay
Assay type: cell-based
Conditions: 5 days incubation, cell viability by Cell Titer Glo
Method in brief: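 PC3 cells were plated at 500 cells/well in RPMI with 10% heat-inactivated FBS, left to attach overnight, then given compounds in 10-fold dilutions from 10 μM to 1×10^−5 μM. After 5 days at 37° C and 5% CO2, viability was read by luminescence and IC50s came from sigmoidal fits of percent inhibition.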

Compound | IC50 (Homo sapiens, PC-3, 120 h) | IC50
O=C(NCc1ccn2ccnc2c1)c1ccc(C2CCN(C(=O)C3COc4ccccc4O3)CC2)cc1 (stereo not shown) [Example 976, 4-[1-(2,3-dihydro-1,4-benzodioxin-2-ylcarbonyl)piperidin-4-yl]-N-(imidazo[1,2-a]pyridin-7-ylmethyl)benzamide] | 34.9 nM | 
COC1CCC(C(=O)N2CCC(c3ccc(C(=O)NCc4ccn5ccnc5c4)cc3)CC2)CC1 (stereo not shown) [Example 977, N-(imidazo[1,2-a]pyridin-7-ylmethyl)-4-{1-[(4-methoxycyclohexyl)carbonyl]piperidin-4-yl}benzamide] | 2.65 nM | 
O=C(NCc1ccn2ccnc2c1)c1ccc(C2CCN(C(=O)c3cccc4c3OCCO4)CC2)cc1 [Example 978, 4-[1-(2,3-dihydro-1,4-benzodioxin-5-ylcarbonyl)piperidin-4-yl]-N-(imidazo[1,2-a]pyridin-7-ylmethyl)benzamide] | 2.02 nM | 
O=C(NCc1ccn2ccnc2c1)c1ccc(C2CCN(C(=O)c3cncc4ccccc34)CC2)cc1 [Example 979, N-(imidazo[1,2-a]pyridin-7-ylmethyl)-4-[1-(isoquinolin-4-ylcarbonyl)piperidin-4-yl]benzamide] | 75.7 nM | 
Cc1nc2ccc(C(=O)N3CCC(c4ccc(C(=O)NCc5ccn6ccnc6c5)cc4)CC3)cc2o1 [Example 980, N-(imidazo[1,2-a]pyridin-7-ylmethyl)-4-{1-[(2-methyl-1,3-benzoxazol-6-yl)carbonyl]piperidin-4-yl}benzamide] | 29.4 nM | 
Cc1cc(C(=O)N2CCC(c3ccc(C(=O)NCc4ccn5ccnc5c4)cc3)CC2)n(C(C)(C)C)n1 [Example 981, 4-{1-[(1-tert-butyl-3-methyl-1H-pyrazol-5-yl)carbonyl]piperidin-4-yl}-N-(imidazo[1,2-a]pyridin-7-ylmethyl)benzamide] | 6.54 nM | 
N#CC1(C(=O)N2CCC(c3ccc(C(=O)NCc4ccn5ccnc5c4)cc3)CC2)CCCC1 [Example 982, 4-{1-[(1-cyanocyclopentyl)carbonyl]piperidin-4-yl}-N-(imidazo[1,2-a]pyridin-7-ylmethyl)benzamide] | 100 nM | 
O=C(NCc1ccn2ccnc2c1)c1ccc(C2CCN(C(=O)c3cc4ncccc4s3)CC2)cc1 [Example 983, N-(imidazo[1,2-a]pyridin-7-ylmethyl)-4-[1-(thieno[3,2-b]pyridin-2-ylcarbonyl)piperidin-4-yl]benzamide] | 724 nM | 
O=C(NCc1ccn2ccnc2c1)c1ccc(C2CCN(C(=O)c3ccc4cccnc4c3)CC2)cc1 [Example 984, N-(imidazo[1,2-a]pyridin-7-ylmethyl)-4-[1-(quinolin-7-ylcarbonyl)piperidin-4-yl]benzamide] | 55.4 nM | 
N#Cc1ccc(F)c(C(=O)N2CCC(c3ccc(C(=O)NCc4ccn5ccnc5c4)cc3)CC2)c1 [Example 985, 4-[1-(5-cyano-2-fluorobenzoyl)piperidin-4-yl]-N-(imidazo[1,2-a]pyridin-7-ylmethyl)benzamide] | 28.3 nM | 
O=C(NCc1ccn2ccnc2c1)c1ccc(C2CCN(C(=O)c3cnc4c(c3)CCCC4)CC2)cc1 [Example 986, N-(imidazo[1,2-a]pyridin-7-ylmethyl)-4-[1-(5,6,7,8-tetrahydroquinolin-3-ylcarbonyl)piperidin-4-yl]benzamide] | 21.4 nM | 
O=C(NCc1ccn2ccnc2c1)c1ccc(C2CCN(C(=O)c3cnc4c(c3)CCCO4)CC2)cc1 [Example 987, 4-[1-(3,4-dihydro-2H-pyrano[2,3-b]pyridin-6-ylcarbonyl)piperidin-4-yl]-N-(imidazo[1,2-a]pyridin-7-ylmethyl)benzamide] | 543 nM | 
O=C(NCc1ccn2ccnc2c1)c1ccc(C2CCN(C(=O)c3ccc4ccncc4c3)CC2)cc1 [Example 988, N-(imidazo[1,2-a]pyridin-7-ylmethyl)-4-[1-(isoquinolin-7-ylcarbonyl)piperidin-4-yl]benzamide] | 60.1 nM | 
O=C(NCc1ccn2ccnc2c1)c1ccc(C2CCN(C(=O)c3cnc4ccccc4n3)CC2)cc1 [Example 989, N-(imidazo[1,2-a]pyridin-7-ylmethyl)-4-[1-(quinoxalin-2-ylcarbonyl)piperidin-4-yl]benzamide] | 68.2 nM | 
COc1ncccc1/C=C/C(=O)N1CCC(c2ccc(C(=O)NCc3ccn4ccnc4c3)cc2)CC1 [Example 990, N-(imidazo[1,2-a]pyridin-7-ylmethyl)-4-{1-[(2E)-3-(2-methoxypyridin-3-yl)prop-2-enoyl]piperidin-4-yl}benzamide] | 17.9 nM | 
O=C(NCc1ccn2ccnc2c1)c1ccc(C2CCN(C(=O)/C=C/c3ccccn3)CC2)cc1 [Example 991, -(imidazo[1,2-a]pyridin-7-ylmethyl)-4-{1-[(2E)-3-(pyridin-2-yl)prop-2-enoyl]piperidin-4-yl}benzamide] |  | 66.9 nM
Cc1cccn2cc(C(=O)N3CCC(c4ccc(C(=O)NCc5ccn6ccnc6c5)cc4)CC3)nc12 [Example 992, N-(imidazo[1,2-a]pyridin-7-ylmethyl)-4-{1-[(8-methylimidazo[1,2-a]pyridin-2-yl)carbonyl]piperidin-4-yl}benzamide] | 584 nM | 
CCOc1cc(C(=O)N2CCC(c3ccc(C(=O)NCc4ccn5ccnc5c4)cc3)CC2)ccn1 [Example 993, 4-{1-[(2-ethoxypyridin-4-yl)carbonyl]piperidin-4-yl}-N-(imidazo[1,2-a]pyridin-7-ylmethyl)benzamide] | 74 nM | 
Cn1nc(C(=O)N2CCC(c3ccc(C(=O)NCc4ccn5ccnc5c4)cc3)CC2)c2c1CCCC2 [Example 994, N-(imidazo[1,2-a]pyridin-7-ylmethyl)-4-{1-[(1-methyl-4,5,6,7-tetrahydro-1H-indazol-3-yl)carbonyl]piperidin-4-yl}benzamide] | 12.1 nM | 
Cn1c(C(=O)N2CCC(c3ccc(C(=O)NCc4ccn5ccnc5c4)cc3)CC2)cc2occc21 [Example 995, N-(imidazo[1,2-a]pyridin-7-ylmethyl)-4-{1-[(4-methyl-4H-furo[3,2-b]pyrrol-5-yl)carbonyl]piperidin-4-yl}benzamide] | 10.8 nM | 
N#Cc1cc(F)cc(C(=O)N2CCC(c3ccc(C(=O)NCc4ccn5ccnc5c4)cc3)CC2)c1 [Example 996, 4-[1-(3-cyano-5-fluorobenzoyl)piperidin-4-yl]-N-(imidazo[1,2-a]pyridin-7-ylmethyl)benzamide] | 62 nM | 
O=C(NCc1ccn2ccnc2c1)c1ccc(C2CCN(C(=O)c3cccc4ccncc34)CC2)cc1 [Example 997, N-(imidazo[1,2-a]pyridin-7-ylmethyl)-4-[1-(isoquinolin-8-ylcarbonyl)piperidin-4-yl]benzamide] | 19.4 nM | 
N#Cc1ccc(CC(=O)N2CCC(c3ccc(C(=O)NCc4ccn5ccnc5c4)cc3)CC2)cc1 [Example 998, 4-{1-[(4-cyanophenyl)acetyl]piperidin-4-yl}-N-(imidazo[1,2-a]pyridin-7-ylmethyl)benzamide] | 123 nM | 
N#Cc1cc(C(=O)N2CCC(c3ccc(C(=O)NCc4ccn5ccnc5c4)cc3)CC2)ccc1F [Example 999, 4-[1-(3-cyano-4-fluorobenzoyl)piperidin-4-yl]-N-(imidazo[1,2-a]pyridin-7-ylmethyl)benzamide] | 684 nM | 
O=C(NCc1ccn2ccnc2c1)c1ccc(C2CCN(C(=O)c3nc4c(s3)CCCC4)CC2)cc1 [Example 1000, N-(imidazo[1,2-a]pyridin-7-ylmethyl)-4-[1-(4,5,6,7-tetrahydro-1,3-benzothiazol-2-ylcarbonyl)piperidin-4-yl]benzamide] | 81.8 nM | 
